# Test results published in patent publication US6689379B1, “Transdermal therapeutic system with neutralized acrylic adhesive patch” (priority 1999, dated 2004).
# Experiment: EVA copolymer film permeation (modified Franz cell), release of active substance from pressure-sensitive adhesive film
# Assay type: in vitro ADME
# Conditions: neutralization degrees 0 to 100% (KOH); EVA membrane; FIGS. 4, 5 and 6
# Protocol: Examinations on the thermodynamics of a model of ethylene vinyl acetate (EVA) copolymer film permeation
# For three basic pharmaceutical active agents, the release behaviour from an acid polyacrylate pressure-sensitive adhesive film in dependence from the neutralization of the adhesive and from the reagent used for this purpose was examined. All tests on EVA membrane were carried out with n=3 samples.
# To this end, the active substance-containing pressure-sensitive adhesive films were stuck on an EVA film as carrier membrane, and the amount of active agent released over time through this membrane to an aqueous medium buffered to pH 5.5 and located on the opposite side was quantified by appropriate HPLC methods. […] Since in the embodiment examples the active substance represents the only component which is low-molecular and capable of migration, it is the tendency of exclusively this active substance to exudate from the polymer matrix of the pressure-sensitive adhesive and to migrate into the acceptor medium after passing through the EVA membrane which is recorded.
# Independently of the permeation properties of human skin for such an active substance, the release tendency of the system in respect of the active substance as measured here is the most essential impetus for transdermal therapy by means of such a system. […]
smiles,measurement,value
CCN(C)C(=O)Oc1cccc([C@H](C)N(C)C)c1 [rivastigmin],dependence of the permeated active substance amount / release rate on the neutralization degree,strong dependence of the effect from the neutralization degree
